Where “and” joins values, the source holds several entries; their conditions need not be identical. Equal entries are not always repeated. Entries after “also recorded” stand apart in the source; their conditions may differ. Where two headings read alike, the source gives them in different places. A value given as a limit tells only on which side of the number the result lay.

For series [1], the target named is T1, Thermotoga maritima mPPase (TmPPase) (Thermotoga maritima, UniProt Q9S5X0). Nature of the series: TmPPase inhibition assay (96-well). Format: biochemical. As to conditions: for IC50 [CI95%] / IC50: TmPPase inhibition, NA = IC50 not assigned. The source says:
We started from the previously identified 5‐arylisoxazole‐3‐carboxylate core present in 2–5 (Figure 1, highlighted in blue). Using KNIME,[30] we did a substructure search for commercial analogues in the ZINC12 database[31] […] Therefore, we manually picked compounds from a diverse collection provided by a single vendor (Ambinter, 174 matches for the substructure query). Out of the search results, we selected fifteen isoxazoles for testing in vitro. For all compounds in this manuscript, we tested activity using a 96‐well based assay that detects the inhibition of TmPPase.[22, 23, 24]
(§1) All commercially obtained compounds had purities >90 % as specified by the vendor. Synthesized compounds were >95 % pure as determined by LC–MS and characterized by HRMS. The inhibition assay was carried out with purified TmPPase as previously reported.[22, 23, 24] The best hits 17 a, 19 a, and 20 a, were validated using eight compound concentrations in triplicate. Further hit validation was done against the purified mPPase from P. falciparum (PfPPase‐VP1) expressed in baculovirus‐infected insect cells (expression, purification and further enzyme analysis will be described in more detail elsewhere). 4 μL of the purified PfPPase‐VP1 (2.0 mg/mL) was reactivated in 96 μL of reactivation buffer, i. e. 20 mM 2‐(N‐morpholino)ethanesulfonic acid (MES) pH 6.5, 3.5 % (v/v) glycerol, 2 mM dithiothreitol (DTT) and 12 mg/mL L‐α‐phosphatidylcholine from soybean. For each tube strip, 3 μL of the reactivated PfPPase‐VP1 was added into 12 μL of reaction buffer (200 mM Tris‐Cl pH 8.0, 8.0 mM MgCl2, 333 mM KCl, 67 mM NaCl) and 25 μL of inhibitor solution. The reaction mixtures were incubated at 50 °C for 5 min and the assay was started with the addition of 10 μL of 2 mM sodium pyrophosphate and further incubation at 50 °C for 45 min. The reaction termination and colour development were done as earlier described.[22, 23, 24]
6 IC50 plots from the TmPPase inhibition assay
The blue and black curves refer to compounds presented already in the main article and only shown in the Supporting Information, respectively. IC50, half maximal inhibitory concentration; CI95%, half maximal inhibitory concentration expressed as a 95% confidence interval (given in square brackets); […]
IC50 determinations were done using R 3.6.1[2] and the n-parameter logistic regression (nplr) package[3] version 0.1.7. In this package, the weighted nplr, given x (compound concentrations) and y values (activity) is calculated using Richard’s equation (eq 1) where B and T are the bottom and top asymptotes, respectively; b and xmid are the Hill slope and the x coordinate at inflexion point, respectively; and s is an asymmetric coefficient. The model parameters were simultaneously optimized using non-linear minimization, using a sum of squared errors.[4] The standard error of the model, defined as the squared error on the fitted values, is used to estimate a confidence interval at 95% on the predicted IC50 values.

The target of series [2] is purified mPPase from P. falciparum (PfPPase-VP1) (Plasmodium falciparum, UniProt Q8IKR1). Nature of the series: PfPPase-VP1 inhibition assay. In kind it is biochemical. As to conditions: IC50, purified PfPPase-VP1, 50 °C, three replicates. The procedure: Further hit validation was done against the purified mPPase from P. falciparum (PfPPase‐VP1) expressed in baculovirus‐infected insect cells. […] Overall, these compounds have higher IC50 values for PfPPase‐VP1 than for TmPPase.
as §1

Series [3] is described as follows: Colloidal aggregation by nephelometry under TmPPase assay conditions. Format: physicochemical. The procedure:
In order to rule out a cause of false positives, colloidal aggregation in the TmPPase model assay was evaluated for compounds 17 a, 19 a and 20 a at six concentrations (100 μM, 50 μM, 20 μM, 10 μM, 1 μM, and 0.1 μM) using the assay conditions (Figure S3).
3 Aggregation data for 17a, 19a and 20a (Figure S3)
Potential colloidal aggregation in the TmPPase model system was studied by nephelometric methods using Nepheloskan Ascent® (Labsystems, Finland). The original assay conditions were simulated, and the light scattering of potential aggregates in the mixture was studied at six concentrations (100 µM, 50 µM, 20 µM, 10 µM, 1 µM and 0.1 µM). Aggregation of the blank and compounds 17a, 19a and 20a was measured as quadruplicates from one independent experiment at three different voltages (300 V, 400 V and 500 V) at room temperature. […]
values at 10 µM, 1 µM and 0.1 µM were similar to those observed by the blank, indicating merely […]
Figure S3. Aggregation data for compounds 17a, 19a and 20a. The data, measured in relative nephelometric units (RNU), is shown as the mean ± SD and normalized to the blank.
(1 picture or pasted object on this page, not shown here)

In series [4] the target is T1, Thermotoga maritima mPPase (TmPPase). Also noted: method as in PMID 31131322, PMID 32292570. As to conditions: previously reported inhibitors, read-out: IC50 [CI95%]; cited from earlier work.

T1 sequence (Q9S5X0 whole entry): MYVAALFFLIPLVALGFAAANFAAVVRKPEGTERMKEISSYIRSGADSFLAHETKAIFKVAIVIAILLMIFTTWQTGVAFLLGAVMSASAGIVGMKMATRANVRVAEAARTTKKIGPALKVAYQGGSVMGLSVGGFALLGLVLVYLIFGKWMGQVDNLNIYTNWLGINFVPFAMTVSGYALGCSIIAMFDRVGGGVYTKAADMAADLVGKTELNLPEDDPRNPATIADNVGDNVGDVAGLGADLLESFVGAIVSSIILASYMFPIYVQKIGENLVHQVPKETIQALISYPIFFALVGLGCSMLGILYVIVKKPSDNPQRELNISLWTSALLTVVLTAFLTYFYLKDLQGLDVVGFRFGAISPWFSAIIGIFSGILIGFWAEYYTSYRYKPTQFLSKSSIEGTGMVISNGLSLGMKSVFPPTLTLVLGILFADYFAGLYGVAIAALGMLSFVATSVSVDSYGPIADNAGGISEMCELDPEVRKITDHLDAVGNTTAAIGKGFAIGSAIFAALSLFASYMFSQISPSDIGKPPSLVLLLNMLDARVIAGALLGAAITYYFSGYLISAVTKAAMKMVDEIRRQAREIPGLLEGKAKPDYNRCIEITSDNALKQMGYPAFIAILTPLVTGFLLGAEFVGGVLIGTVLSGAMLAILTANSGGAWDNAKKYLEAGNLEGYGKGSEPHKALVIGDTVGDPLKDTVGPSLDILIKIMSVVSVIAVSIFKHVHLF
Sequence of purified mPPase from P. falciparum (PfPPase-VP1) (Q8IKR1 entry or part of it): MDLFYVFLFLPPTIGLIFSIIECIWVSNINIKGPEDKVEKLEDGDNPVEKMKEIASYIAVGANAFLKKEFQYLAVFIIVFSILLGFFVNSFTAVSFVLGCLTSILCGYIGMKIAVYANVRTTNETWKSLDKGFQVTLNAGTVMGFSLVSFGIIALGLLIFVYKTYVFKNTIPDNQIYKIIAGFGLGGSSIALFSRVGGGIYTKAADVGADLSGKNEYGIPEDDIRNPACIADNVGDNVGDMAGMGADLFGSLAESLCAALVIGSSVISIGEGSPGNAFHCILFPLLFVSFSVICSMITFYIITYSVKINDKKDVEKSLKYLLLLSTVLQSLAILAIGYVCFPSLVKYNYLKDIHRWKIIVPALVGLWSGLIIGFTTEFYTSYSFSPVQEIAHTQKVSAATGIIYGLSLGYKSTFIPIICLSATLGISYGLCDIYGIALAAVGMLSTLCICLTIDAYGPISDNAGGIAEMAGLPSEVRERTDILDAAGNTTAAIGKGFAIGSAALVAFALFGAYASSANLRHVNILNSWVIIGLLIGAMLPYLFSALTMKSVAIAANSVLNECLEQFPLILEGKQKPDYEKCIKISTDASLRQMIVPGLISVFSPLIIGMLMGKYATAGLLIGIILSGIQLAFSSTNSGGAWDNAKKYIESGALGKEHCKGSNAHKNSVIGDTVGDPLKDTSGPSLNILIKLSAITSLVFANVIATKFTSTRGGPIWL

As for `CCOC(=O)c1cc(-c2cc(C)cc(C)c2)n2nc(Br)cc2n1` [15 a, Ethyl 2‐bromo‐7‐(3,5‐dimethylphenyl)pyrazolo[1,5‐a]pyrimidine‐5‐carboxylate], in series [1], the “IC50 [CI95%]” value is listed as “weak activity”. For the same compound, the IC50 (commonly the concentration at which inhibition is half-maximal) in series [1] (read-out: IC50 [CI95%]) amounted to 120 µM. Taken in the same sequence, the figures for `CCOC(=O)c1cc(C2CC2)n2nc(Br)cc2n1` [15 b, Ethyl 2‐bromo‐7‐cyclopropylpyrazolo[1,5‐a]pyrimidine‐5‐carboxylate] were “only slightly effective” and 150 µM. For the compound `Cc1cc(C)cc(-c2cc(C(=O)O)nc3cc(Br)nn23)c1` [16 a, 2‐Bromo‐7‐(3,5‐dimethylphenyl)pyrazolo[1,5‐a]pyrimidine‐5‐carboxylic acid], the “IC50 [CI95%]” value in series [1] was “inactive”.

On to `O=C(O)c1cc(C2CC2)n2nc(Br)cc2n1` [16 b, 2‐Bromo‐7‐cyclopropylpyrazolo[1,5‐a]pyrimidine‐5‐carboxylic acid], for which the results for the “IC50 [CI95%]” value in series [1] and in series [1] (listed as 16b) were “completely unsuccessful” and “Inactive”, respectively. For the compound `O=C(Oc1ccccc1Br)c1cc(C2CC2)n2nc(Br)cc2n1` [17 b, 2‐Bromophenyl 2‐bromo‐7‐cyclopropylpyrazolo[1,5‐a]pyrimidine‐5‐carboxylate], the “IC50 [CI95%]” value is recorded as “completely unsuccessful” in series [1] and “Inactive” in series [1] (listed as 17b). Consider `C=Cc1cc2nc(C(=O)OCC)cc(-c3cc(C)cc(C)c3)n2n1` [18 a, Ethyl 7‐(3,5‐dimethylphenyl)‐2‐vinylpyrazolo[1,5‐a]pyrimidine‐5‐carboxylate], for which the IC50 in series [1] (read-out: IC50 [CI95%]) came out at 54 µM. Also, in series [1] (TmPPase, 18 a versus 15 a), the “fold improvement in the inhibition compared to 2-bromo analogue 15 a” value is given as 2.2 fold.

For the compound `C=Cc1cc2nc(C(=O)OCC)cc(C3CC3)n2n1` [18 b, Ethyl 7‐cyclopropyl‐2‐vinylpyrazolo[1,5‐a]pyrimidine‐5‐carboxylate], the “IC50 [CI95%]” value in series [1] is on record as “Inactive”. Take `C=Cc1cc2nc(C(=O)O)cc(-c3cc(C)cc(C)c3)n2n1` [19 a, 7‐(3,5‐Dimethylphenyl)‐2‐vinylpyrazolo[1,5‐a]pyrimidine‐5‐carboxylic acid]: the IC50 stood at 14 µM in series [1] (IC50 [CI95%]) and 130 µM in series [2]. Further, the colloidal aggregation entry in series [3] (six concentrations 100–0.1 μM) is recorded as “no detectable aggregation”. In the case of `C=Cc1cc2nc(C(=O)O)cc(C3CC3)n2n1` [19 b, 7‐Cyclopropyl‐2‐vinylpyrazolo[1,5‐a]pyrimidine‐5‐carboxylic acid], in series [1], the “IC50 [CI95%]” value is listed as “Inactive”. For `C=Cc1cc2nc(C(=O)Oc3ccccc3Br)cc(-c3cc(C)cc(C)c3)n2n1` [20 a, 2‐Bromophenyl 7‐(3,5‐dimethylphenyl)‐2‐vinylpyrazolo[1,5‐a]pyrimidine‐5‐carboxylate], the IC50 in series [1] (IC50 [CI95%]) was 18 µM; in series [2], 74 µM. Besides, the “concentration of aggregate formation” value in series [3] (TmPPase assay conditions, six concentrations 100–0.1 μM) is recorded as “above 20 μM”. For the same compound, the colloidal aggregation entry in series [3] (at 10 µM, 1 µM and 0.1 µM) was “negligible/no detectable aggregation”; in series [3] (at 100 µM, 50 µM and 20 µM), “aggregate formation”. On to `C=Cc1cc2nc(C(=O)Oc3ccccc3Br)cc(C3CC3)n2n1` [20 b, 2‐Bromophenyl 7‐cyclopropyl‐2‐vinylpyrazolo[1,5‐a]pyrimidine‐5‐carboxylate], for which the “IC50 [CI95%]” value in series [1] is “Inactive”. For the compound `C=Cc1cc2nc(C(=O)NCCN)cc(-c3cc(C)cc(C)c3)n2n1` [21 a, N ‐(2‐Aminoethyl)‐7‐(3,5‐dimethylphenyl)‐2‐vinylpyrazolo[1,5‐a]pyrimidine‐5‐carboxamide], the IC50 in series [1] (read-out: IC50 [CI95%]) is 72 µM. Besides, in series [1] (TmPPase, 21 a versus 21 b), the “fold higher inhibition than cyclopropyl-substituted analogue 21 b” value came to 3.6 fold. `C=Cc1cc2nc(C(=O)NCCN)cc(C3CC3)n2n1` [21 b, N ‐(2‐Aminoethyl)‐7‐cyclopropyl‐2‐vinylpyrazolo[1,5‐a]pyrimidine‐5‐carboxamide]: the IC50 in series [1] (read-out: IC50 [CI95%]) is 260 µM.

As to `Nc1nc2ccc(CNC(=O)c3cc4ccccc4[nH]3)cc2s1` [compound 1], in series [4], the IC50 is 2.7 µM. As to `Cc1cccc(-c2cc(C(=O)Oc3ccccc3Br)no2)c1` [compound 3], the IC50 in series [4] is 6.1 µM. Consider `CC(C)(C)c1cccc(-c2cc(C(=O)Oc3ccccc3Br)no2)c1` [compound 4], for which, in series [4], the concentration for half-maximal inhibition (IC50) was 6.7 µM. Regarding `CCOC(=O)c1cc(-c2ccc(OC)c(S(=O)(=O)Nc3ccc4c(c3)OCO4)c2)on1` [compound 5], the IC50 in series [4] is 36 µM. As for `CCOC(=O)c1cc(-c2ccc(OC)c(S(=O)(=O)N3CCCSc4ccccc43)c2)on1` [compound 6], the IC50 in series [1] (read-out: IC50 [CI95%]) turned out to be 5.4 µM. The same measure, in the same setting: under `CCOC(=O)c1cc(-c2ccc(OC)c(S(=O)(=O)N3c4ccccc4CC3C)c2)on1` (stereo not drawn) [compound 7] stands 56 µM.

Turning to `CCOC(=O)c1cc(-c2ccc(OC)c(S(=O)(=O)N3CC(C)CSc4ccccc43)c2)on1` (stereo not drawn) [compound 8], the “IC50 [CI95%]” value in series [1] is given as “Inactive; also recorded: not tolerated”. Still for that read-out and setting: then `CCOC(=O)c1cc(-c2ccc(OC)c(S(=O)(=O)N3CCSc4ccccc43)c2)on1` [compound 9], with “Inactive; also recorded: loss of all TmPPase inhibitory activity”; and `CCOC(=O)c1cc(-c2ccc(OC)c(S(=O)(=O)N3CC(C)Sc4ccccc43)c2)on1` (stereo not drawn) [compound 10], with “Inactive; also recorded: loss of all TmPPase inhibitory activity”. Consider `COc1ccccc1S(=O)(=O)Nc1ccc(N(C)C)cc1` [compound 11], for which, in series [1] (read-out: IC50 [CI95%]), the IC50 is < 25 µM and 14 µM. Besides, the “ligand efficiency (LE)” value in series [1] (computed from pIC50 and heavy atom count) is 0.23.
